These results are taken from PMC11900313, “Exploring the Potential of Coumarin Derivatives on Serotonin Receptors 5-HT1A and 5HT2A” (International Journal of Molecular Sciences, 2025).

The Ki is a dissociation constant, usually derived from enzyme kinetics or from competition with a known ligand. Broadly, the IC50 is the concentration at which inhibition is half-maximal.

SMILES strings stand for the structures. “And” between values parts separate entries of the source, which are not always exact repeats. Equal values may be shown once. Read-outs that look alike come from different tables or passages of the source.

For experiment [1], the target named is T1, 5-HT2A receptor (Rattus norvegicus, UniProt P14842).
T1 construct: from tissue; host or cells: Sprague-Dawley rat frontal cortex membranes
T1 sequence (P14842 whole entry): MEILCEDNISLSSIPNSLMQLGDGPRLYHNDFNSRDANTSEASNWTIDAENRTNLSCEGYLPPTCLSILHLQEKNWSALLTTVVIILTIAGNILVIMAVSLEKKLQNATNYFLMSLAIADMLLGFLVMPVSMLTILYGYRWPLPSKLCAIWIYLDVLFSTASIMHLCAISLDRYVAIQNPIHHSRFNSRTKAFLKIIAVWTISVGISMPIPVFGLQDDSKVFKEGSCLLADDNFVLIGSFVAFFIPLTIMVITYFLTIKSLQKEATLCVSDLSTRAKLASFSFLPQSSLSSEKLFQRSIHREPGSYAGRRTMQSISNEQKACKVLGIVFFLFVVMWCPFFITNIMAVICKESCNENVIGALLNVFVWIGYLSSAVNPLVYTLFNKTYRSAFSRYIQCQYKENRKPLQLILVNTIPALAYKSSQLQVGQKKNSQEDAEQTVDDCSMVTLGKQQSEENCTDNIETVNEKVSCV
The experiment can be described thus: 5-HT2A competitive radioligand binding assay with [3H]ketanserin, frontal cortex membranes. Details: species or system Sprague–Dawley rats.
Procedure: (§1) Sprague–Dawley rats were decapitated under isoflurane anesthesia. Brains were rapidly removed and placed on ice. Hippocampi (for the 5-HT1A assay) or frontal cortices (for the 5-HT2A assay) were dissected on a Petri dish. The tissue from 10 rats was homogenized in 30 vol. homogenization buffer (50 mM Tris-HCl, pH = 4.7, 1 mM EDTA, 1mM dithiothreitol) with a hand held Teflon-glass homogenizer. The homogenate was centrifuged at 48,000× g at 4 °C for 15 min. The pellet was suspended and homogenized in homogenization buffer and incubated for 10 min at 36 °C. The centrifugation and suspension steps were repeated twice. The final pellet was homogenized in 5 vol. 50 mM Tris-HCl, pH = 7.4 buffer and stored at −80 °C for no longer than 6 months.
(§2) Non-specific binding was determined with 10 μM serotonin. The final DMSO concentration in the assay was 5%. After incubation, the reaction mixture was deposited with the FilterMate-96 Harvester (Revvity, Waltham, MA, USA) onto Unifilter® GF/C plates (Revvity, Waltham, MA, USA) presoaked in 0.4% PEI for 1 h. Each well was washed with 2 mL of 50 mM Tris-HCl (pH 7.4) buffer to separate bound ligands from free. Plates were left to dry overnight. Then, 35 µL of Microscint-20 scintillation fluid (Revvity, Waltham, MA, USA) was added to each filter well and left to equilibrate for 2 h. Filter-bound radioactivity was counted in a MicroBeta^2 LumiJet scintillation counter (Revvity, Waltham, MA, USA). Binding curves were fitted with one site non-linear regression. The binding affinity (Ki) for each compound was calculated from the EC50 values with the Cheng–Prusoff equation from two separate experiments.

The target of experiment [2] is T2, 5-HT1A receptor (Rattus norvegicus, UniProt P19327).
T2 construct: from tissue; host or cells: Sprague-Dawley rat hippocampus membranes
T2 sequence (P19327 1-422): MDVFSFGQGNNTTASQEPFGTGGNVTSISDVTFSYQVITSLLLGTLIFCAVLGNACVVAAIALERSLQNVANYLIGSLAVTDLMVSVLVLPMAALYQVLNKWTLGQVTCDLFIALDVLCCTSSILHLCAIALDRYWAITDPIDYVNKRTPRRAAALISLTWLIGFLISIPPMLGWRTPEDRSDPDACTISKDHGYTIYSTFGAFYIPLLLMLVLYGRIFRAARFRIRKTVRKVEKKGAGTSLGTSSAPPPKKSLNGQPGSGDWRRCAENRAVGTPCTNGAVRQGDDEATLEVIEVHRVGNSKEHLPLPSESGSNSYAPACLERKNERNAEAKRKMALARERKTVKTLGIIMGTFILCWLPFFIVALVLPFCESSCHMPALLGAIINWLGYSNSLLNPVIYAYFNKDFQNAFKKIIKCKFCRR
The experiment can be described thus: Antagonist activity at 5-HT1A receptors, [35S]GTPγS assay with 8-OH-DPAT stimulation. It counts as biochemical, Sprague–Dawley rats. As to conditions: for IC50: antagonist activity, [35S]GTPγS.
Procedure: as §1
Then, hippocampal membrane homogenates (15 μg/mL) were added to each well, and the mixture was incubated for 90 min. at 37 °C in a total volume of 250 µL. Non-specific binding was determined with 10 µM of unlabeled GTPγS. The reaction was terminated by vacuum filtration onto GF/C Unifilter Plates (Revvity, Waltham, MA, USA) presoaked with 50 mM Tris-HCl (pH = 7.4) for 1 h with the FilterMate Harvester® (Revvity, Waltham, MA, USA). The samples were then rapidly washed with 2 mL of 50 mM Tris-HCl (pH = 7.4) buffer. The Unifilter plates were dried overnight at RT. After drying, 35 µL of EcoScint-20 scintillant (Revvity, Waltham, MA, USA) was added to each well. Radioactivity was counted in a Trilux MicroBeta^2 counter (Revvity, Waltham, MA, USA). […] The curves were fitted with a one-site non-linear regression model to determine inhibitory potency (IC50). The experiments were repeated twice.

Experiment [3] deals with T2, 5-HT1A receptor. The experiment can be described thus: 5-HT1A competitive radioligand binding assay with [3H]8-OH-DPAT, hippocampal membranes. Set-up: species or system Sprague–Dawley rats. As to conditions: [3H]8-OH-DPAT, hippocampal membranes; 95% CI in brackets.
Procedure: as §1, §2
The target in experiment [4] is 5-HT2A receptor. The following applies: earlier study; cited from earlier work.
Experiment [5] concerns the target 5-HT1A receptor. The following applies: earlier study; cited from earlier work.
In experiment [6] the test system is 5-HT1A receptor. Details: method as in PMID 36769117. As to conditions: previous study; cited from earlier work.
Where [7] appears, read: read-out: 5-HT2A Ki (nM, 95% CI).
The mark [8] stands for this setting: 1 µM 8-OH-DPAT, 95% CI in brackets, read-out: 5-HT1A IC50 (µM, 95% CI).

As to `COc1ccccc1N1CCN(CC(O)COc2ccc3ccc(=O)oc3c2)CC1` (centres unmarked) [Compound 13, 7-(2-Hydroxy-3-(4-(2-methoxyphenyl)piperazin-1-yl)propoxy)-2H-chromen-2-one], the Ki is 18 nM at 5-HT2A receptor [1] (setting [7]) and 222 nM on 5-HT1A receptor [3]. Further, the IC50 at 5-HT1A receptor [2] (setting [8]) worked out at 1.43 µM.

Take `COc1cccc(N2CCN(CC(O)COc3c(C(C)=O)c(C)cc4oc(=O)cc(C)c34)CC2)c1` (centres unmarked) [Compound 8, 6-Acetyl-5-(2-hydroxy-3-(4-(3-methoxyphenyl)piperazin-1-yl)propoxy)-4,7-dimethyl-2H-chromen-2-one]: the Ki was found to be 115 nM on 5-HT2A receptor [1] (setting [7]) and 1780 nM at 5-HT1A receptor [3]. The IC50 at 5-HT1A receptor [2] (setting [8]) is 16.2 µM.

As for `COc1ccccc1N1CCN(CCCOc2ccc3c(C)cc(=O)oc3c2C(C)=O)CC1` [8-acetyl-7-{3-[4-(2-methoxyphenyl)piperazin-1-yl]propoxy}-4-methylcoumarin], the Ki is 8 nM on 5-HT2A receptor [4] and 0.6 nM at 5-HT1A receptor [5].

`COc1cccc(N2CCN(CC(O)COc3cc(C)cc4oc(=O)cc(C)c34)CC2)c1` (centres unmarked) [Compound 6, 5-(2-Hydroxy-3-(4-(3-methoxyphenyl)piperazin-1-yl)propoxy)-4,7-dimethyl-2H-chromen-2-one]: the figures for the Ki on 5-HT2A receptor [1] (setting [7]) and on 5-HT1A receptor [3] were 662 nM and 176 nM, respectively. In addition, at 5-HT1A receptor [2] (setting [8]), the IC50 was found to be 6.5 µM.

Regarding `COc1ccccc1N1CCN(CC(O)COc2cc(=O)oc3ccccc23)CC1` (centres unmarked) [Compound 3, 4-(2-Hydroxy-3-(4-(2-methoxyphenyl)piperazin-1-yl)propoxy)-2H-chromen-2-one], the Ki at 5-HT2A receptor [1] (setting [7]) amounted to 4010 nM; at 5-HT1A receptor [3], 243 nM. In addition, the IC50 on 5-HT1A receptor [2] (setting [8]) is 67.8 µM and 68 µM.

In the case of `COc1cccc(N2CCN(CC(O)COc3cc4oc(=O)cc(C)c4cc3C(C)=O)CC2)c1` (centres unmarked) [Compound 2, 6-Acetyl-7-(2-hydroxy-3-(4-(3-methoxyphenyl)piperazin-1-yl)propoxy)-4-methyl-2H-chromen-2-one], the Ki was found to be 83 nM at 5-HT2A receptor [1] ([3H]ketanserin, frontal cortex membranes, 95% CI in brackets) and 196 nM at 5-HT1A receptor [3]. For the same compound, the concentration for half-maximal inhibition (IC50) at 5-HT1A receptor [2] (setting [8]) was 58.5 µM and 59 µM.

Consider `COc1ccccc1N1CCN(CC(O)COc2ccc3c(C)cc(=O)oc3c2)CC1` (centres unmarked) [Compound 9, 7-(2-Hydroxy-3-(4-(2-methoxyphenyl)piperazin-1-yl)propoxy)-4-methyl-2H-chromen-2-one], for which the Ki on 5-HT2A receptor [1] (setting [7]) was determined as 291 nM; at 5-HT1A receptor [3], 245 nM. On 5-HT1A receptor [2] (setting [8]), the IC50 is 2.42 µM and 2.4 µM.

Turning to `COc1ccccc1N1CCN(CC(O)COc2cc(C)cc3oc(=O)cc(C)c23)CC1` (centres unmarked) [Compound 5, 5-(2-Hydroxy-3-(4-(2-methoxyphenyl)piperazin-1-yl)propoxy)-4,7-dimethyl-2H-chromen-2-one], the Ki on 5-HT2A receptor [1] (setting [7]) came to 1180 nM; at 5-HT1A receptor [3] it was 90 nM. Moreover, the IC50 at 5-HT1A receptor [2] (setting [8]) came out at 14.7 µM.

With `COc1ccccc1N1CCN(CC(O)COc2cc3oc(=O)cc(C)c3cc2C(C)=O)CC1` (centres unmarked) [Compound 1, 6-Acetyl-7-(2-hydroxy-3-(4-(2-methoxyphenyl)piperazin-1-yl)propoxy)-4-methyl-2H-chromen-2-one], the Ki was 1850 nM at 5-HT2A receptor [1] (setting [7]) and 243 nM at 5-HT1A receptor [3]. Moreover, on 5-HT1A receptor [2] (setting [8]), the IC50 turned out to be 331 µM.

`COc1cccc(N2CCN(CC(O)COc3ccc4c(C)cc(=O)oc4c3C(C)=O)CC2)c1` (centres unmarked) [Compound 12, 8-Acetyl-7-(2-hydroxy-3-(4-(3-methoxyphenyl)piperazin-1-yl)propoxy)-4-methyl-2H-chromen-2-one]: the values for the Ki at 5-HT2A receptor [1] (setting [7]) and on 5-HT1A receptor [3] were 67 nM and 264 nM, respectively.

Regarding `COc1cccc(N2CCN(CC(O)COc3ccc4c(C)cc(=O)oc4c3)CC2)c1` (centres unmarked) [Compound 10, 7-(2-Hydroxy-3-(4-(3-methoxyphenyl)piperazin-1-yl)propoxy)-4-methyl-2H-chromen-2-one], the figures for the Ki on 5-HT2A receptor [1] (setting [7]) and on 5-HT1A receptor [3] were 260 nM and 87 nM, respectively. For the same compound, on 5-HT1A receptor [2] (setting [8]), the IC50 turned out to be 89.5 µM.

Regarding `COc1ccccc1N1CCN(CC(O)COc2ccc3c(C)cc(=O)oc3c2C(C)=O)CC1` (centres unmarked) [Compound 11, 8-Acetyl-7-(2-hydroxy-3-(4-(2-methoxyphenyl)piperazin-1-yl)propoxy)-4-methyl-2H-chromen-2-one], on 5-HT2A receptor [1] (setting [7]), the Ki was found to be 6160 nM. Moreover, the IC50 at 5-HT1A receptor [2] (given in nM in text, read-out: 5-HT1A IC50) was 0.043 µM. The 5-HT1A functional profile entry at 5-HT1A receptor [2] (functional assays) is “significant 5-HT1A antagonistic profile”.

`COc1cccc(N2CCN(CC(O)COc3cc(=O)oc4ccccc34)CC2)c1` (centres unmarked) [Compound 4, 4-(2-Hydroxy-3-(4-(3-methoxyphenyl)piperazin-1-yl)propoxy)-2H-chromen-2-one]: the results for the Ki on 5-HT2A receptor [1] (setting [7]) and on 5-HT1A receptor [3] were 315 nM and 190 nM, respectively. In addition, at 5-HT1A receptor [2] (setting [8]), the IC50 came to 10 µM.

Regarding `COc1ccccc1N1CCN(CC(O)COc2c(C(C)=O)c(C)cc3oc(=O)cc(C)c23)CC1` (centres unmarked) [Compound 7, 6-Acetyl-5-(2-hydroxy-3-(4-(2-methoxyphenyl)piperazin-1-yl)propoxy)-4,7-dimethyl-2H-chromen-2-one], the values for the Ki on 5-HT2A receptor [1] (setting [7]) and at 5-HT1A receptor [3] were 4150 nM and 90 nM, respectively. Also, the IC50 at 5-HT1A receptor [2] (setting [8]) is 2.4 µM.

Regarding `COc1cccc(N2CCN(CCCCOc3cc4oc(=O)cc(C)c4cc3C(C)=O)CC2)c1` [6-acetyl-7-{4-[4-(3-methoxyphenyl)piperazin-1-yl]butoxy}-4-methylcoumarin], the “5-HT1A receptor activity (agonist/antagonist)” value in the experiment with 5-HT1A receptor [6] is given as “agonist”.

On to `COc1cccc(N2CCN(CC(O)COc3ccc4ccc(=O)oc4c3)CC2)c1` (centres unmarked) [Compound 14, 7-(2-Hydroxy-3-(4-(3-methoxyphenyl)piperazin-1-yl)propoxy)-2H-chromen-2-one], for which the Ki at 5-HT2A receptor [1] (setting [7]) worked out at 68 nM; on 5-HT1A receptor [3], 135 nM. Further, at 5-HT1A receptor [2] (setting [8]), the IC50 came to 112 µM.
